Measured values as given in ChEMBL document CHEMBL2434953, “Safe and easy route for the synthesis of 1,3-dimethyl-1,2,3-triazolium salt and investigation of its anticancer activities” (2013).

Assays:
Type in all cases: functional
MDA-MB-435 = assay: Growth inhibition of human MDA-MB-435 cells after 48 hrs by sulforhodamine B assay; conditions: MDA-MB-435, 48 h
KM12 = assay: Growth inhibition of human KM12 cells after 48 hrs by sulforhodamine B assay; conditions: KM12, 48 h
SW-620 = assay: Growth inhibition of human SW620 cells after 48 hrs by sulforhodamine B assay; conditions: SW-620, 48 h
M14 = assay: Growth inhibition of human M14 cells after 48 hrs by sulforhodamine B assay; conditions: M14, 48 h
HCT-15 = assay: Growth inhibition of human HCT15 cells after 48 hrs by sulforhodamine B assay; conditions: HCT-15, 48 h
HT-29 = assay: Growth inhibition of human HT-29 cells after 48 hrs by sulforhodamine B assay; conditions: HT-29, 48 h
NCI-H226 = assay: Growth inhibition of human NCI-H226 cells after 48 hrs by sulforhodamine B assay; conditions: NCI-H226, 48 h
SK-MEL-5 = assay: Growth inhibition of human SK-MEL-5 cells after 48 hrs by sulforhodamine B assay; conditions: SK-MEL-5, 48 h
A549 = assay: Growth inhibition of human A549 cells after 48 hrs by sulforhodamine B assay; conditions: A549, 48 h
Malme-3M = assay: Growth inhibition of human MALME-3M cells after 48 hrs by sulforhodamine B assay
SF-295 = assay: Growth inhibition of human SF295 cells after 48 hrs by sulforhodamine B assay; conditions: SF-295, 48 h
SF-268 = assay: Growth inhibition of human SF268 cells after 48 hrs by sulforhodamine B assay; conditions: SF-268, 48 h
[1] = Growth inhibition of human HCC2998 cells after 48 hrs by sulforhodamine B assay; conditions: HCC 2998, 48 h
NCI-H322M = assay: Growth inhibition of human NCI-H322M cells after 48 hrs by sulforhodamine B assay
SK-MEL-28 = assay: Growth inhibition of human SK-MEL-28 cells after 48 hrs by sulforhodamine B assay; conditions: SK-MEL-28, 48 h
NCI-H460 = assay: Growth inhibition of human NCI-H460 cells after 48 hrs by sulforhodamine B assay; conditions: NCI-H460, 48 h
SNB-75 = assay: Growth inhibition of human SNB75 cells after 48 hrs by sulforhodamine B assay; conditions: SNB-75, 48 h
LOX IMVI = assay: Growth inhibition of human LOXIMVI cells after 48 hrs by sulforhodamine B assay
SNB-19 = assay: Growth inhibition of human SNB19 cells after 48 hrs by sulforhodamine B assay; conditions: SNB-19, 48 h
[2] = Growth inhibition of human EKVX cells after 48 hrs by sulforhodamine B assay
HOP-62 = assay: Growth inhibition of human HOP62 cells after 48 hrs by sulforhodamine B assay; conditions: HOP-62, 48 h
SK-MEL-2 = assay: Growth inhibition of human SK-MEL-2 cells after 48 hrs by sulforhodamine B assay; conditions: SK-MEL-2, 48 h
UACC-257 = assay: Growth inhibition of human UACC257 cells after 48 hrs by sulforhodamine B assay; conditions: UACC-257, 48 h
SF-539 = assay: Growth inhibition of human SF539 cells after 48 hrs by sulforhodamine B assay; conditions: SF-539, 48 h
COLO 205 = assay: Growth inhibition of human COLO205 cells after 48 hrs by sulforhodamine B assay; conditions: COLO 205, 48 h
HCT-116 = assay: Growth inhibition of human HCT116 cells after 48 hrs by sulforhodamine B assay; conditions: HCT-116, 48 h
NCI-H23 = assay: Growth inhibition of human NCI-H23 cells after 48 hrs by sulforhodamine B assay; conditions: NCI-H23, 48 h
NCI-H522 = assay: Growth inhibition of human NCI-H522 cells after 48 hrs by sulforhodamine B assay; conditions: NCI-H522, 48 h
U-251 = assay: Growth inhibition of human U251 cells after 48 hrs by sulforhodamine B assay; conditions: U-251, 48 h

## Cn1n[n+](C)c2c1C(=O)c1ccccc1C2=O
MDA-MB-435
  GI50: 0.2 µM
KM12
  GI50: 0.79 µM
SW-620
  GI50: 1.15 µM
M14
  GI50: 0.68 µM
HCT-15
  GI50: 1.61 µM
HT-29
  GI50: 1.14 µM
NCI-H226
  GI50: 0.51 µM
SK-MEL-5
  GI50: 0.38 µM
A549
  GI50: 0.32 µM
Malme-3M
  GI50: 0.15 µM
SF-295
  GI50: 1.05 µM
SF-268
  GI50: 0.95 µM
[1]
  GI50: 1.24 µM
NCI-H322M
  GI50: 0.28 µM
SK-MEL-28
  GI50: 1.61 µM
NCI-H460
  GI50: 0.3 µM
SNB-75
  GI50: 1.68 µM
LOX IMVI
  GI50: 0.5 µM
SNB-19
  GI50: 1.59 µM
[2]
  GI50: 1.21 µM
HOP-62
  GI50: 1.54 µM
SK-MEL-2
  GI50: 1.57 µM
UACC-257
  GI50: 1.79 µM
SF-539
  GI50: 1.35 µM
COLO 205
  GI50: 1.01 µM
HCT-116
  GI50: 0.68 µM
NCI-H23
  GI50: 0.62 µM
NCI-H522
  GI50: 1.41 µM
U-251
  GI50: 1.27 µM
